Key:
[1] = in children; cited from earlier work

SMILES	solubility (physchem; pH 1, simulated gastric fluid)	solubility (physchem; pH 4.7, aqueous buffer)	solubility (physchem; pH 4.84, aqueous buffer)	solubility (physchem; pH 5.87, aqueous buffer)	solubility (physchem; pH 6.17, aqueous buffer)	solubility (physchem; pH 6.7, aqueous buffer)	elimination half-life [1]
CCCC(CCC)C(=O)O [Divalproex sodium, sodium hydrogen divalproate]	1 mg/mL	2 mg/mL	3.4 mg/mL	21 mg/mL	36 mg/mL	200 mg/mL	
CCCC(CCC)C(=O)O [valproic acid, 2-propylpentanoic acid]							four and fourteen

— patent publication EP1146864B1, “PH INDEPENDENT EXTENDED RELEASE PHARMACEUTICAL FORMULATION” (ABBOTT LABORATORIES, priority 1999, dated 2000)
